Assay results from patent US10973820B2, “Compounds for treatment of diseases related to DUX4 expression” (Facio Intellectual Property B.V., priority 2017, dated 2021).
Read-outs that look alike come from different tables or passages of the source.

How the values were obtained:
[1] = target: CK1 α (Homo sapiens, UniProt P48729); assay: inhibition of CK1 α by CK1 inhibitors; type: biochemical
Text: IC50 values for CK1 can be determined using any method known in the art, for example as described in WO2011051858, WO2015119579, EP2949651, or US2005/0131012. Suitable assays can use a peptide substrate and a readout method, for example using the Kinase-Glo assay (Promega, part # V672A).

[2] = target: CK1 ε (Homo sapiens, UniProt P49674); assay: inhibition of CK1 ε by CK1 inhibitors; type: biochemical
Sequence of CK1 ε (P49674 whole entry): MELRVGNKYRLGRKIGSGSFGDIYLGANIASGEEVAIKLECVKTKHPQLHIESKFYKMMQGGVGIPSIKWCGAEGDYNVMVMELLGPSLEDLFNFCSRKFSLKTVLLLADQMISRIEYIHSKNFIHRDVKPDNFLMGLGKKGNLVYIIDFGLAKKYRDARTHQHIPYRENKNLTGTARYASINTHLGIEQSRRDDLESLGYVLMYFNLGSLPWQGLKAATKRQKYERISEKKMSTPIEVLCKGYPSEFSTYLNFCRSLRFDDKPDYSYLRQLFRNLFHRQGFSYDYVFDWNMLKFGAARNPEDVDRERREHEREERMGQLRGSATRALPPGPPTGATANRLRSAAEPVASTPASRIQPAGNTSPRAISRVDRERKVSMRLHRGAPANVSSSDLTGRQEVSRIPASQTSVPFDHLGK
Text: (§1) Suitable assays can use a peptide substrate and a readout method, for example using the Kinase-Glo assay (Promega, part # V672A).

[3] = target: CK1 δ (Homo sapiens, UniProt P48730); assay: inhibition of CK1 δ by CK1 inhibitors; type: biochemical
Sequence of CK1 δ (P48730 whole entry): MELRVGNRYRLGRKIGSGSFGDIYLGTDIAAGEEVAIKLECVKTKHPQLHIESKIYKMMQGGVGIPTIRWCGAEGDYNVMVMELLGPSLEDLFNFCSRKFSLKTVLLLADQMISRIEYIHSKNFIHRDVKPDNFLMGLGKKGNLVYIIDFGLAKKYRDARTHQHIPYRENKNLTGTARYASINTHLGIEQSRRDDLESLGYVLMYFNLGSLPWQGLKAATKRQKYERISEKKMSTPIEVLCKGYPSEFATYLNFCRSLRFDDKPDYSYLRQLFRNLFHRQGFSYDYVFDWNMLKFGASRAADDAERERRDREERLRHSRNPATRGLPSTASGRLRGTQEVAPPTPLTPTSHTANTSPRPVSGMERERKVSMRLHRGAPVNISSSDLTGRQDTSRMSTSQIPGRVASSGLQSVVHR
Text: as §1

[4] = target: p38 (Homo sapiens, UniProt Q16539); assay: inhibition of p38 by CK1 inhibitors; type: biochemical; settings: p38α
Sequence of p38 (Q16539 whole entry): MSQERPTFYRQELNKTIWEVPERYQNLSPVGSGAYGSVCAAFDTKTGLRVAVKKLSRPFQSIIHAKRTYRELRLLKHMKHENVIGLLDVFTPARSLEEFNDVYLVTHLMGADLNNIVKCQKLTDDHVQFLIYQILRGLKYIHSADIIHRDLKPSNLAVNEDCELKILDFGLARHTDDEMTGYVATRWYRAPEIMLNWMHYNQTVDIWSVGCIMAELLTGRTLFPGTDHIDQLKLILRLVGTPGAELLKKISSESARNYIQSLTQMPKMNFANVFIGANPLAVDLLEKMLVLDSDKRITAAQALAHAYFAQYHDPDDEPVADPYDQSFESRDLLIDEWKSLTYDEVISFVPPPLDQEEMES

[5] = system: DUX4; assay: DUX4 repression, high-content immunocytochemistry assay in primary FSHD myotubes; type: cell-based, human; settings: for EC50: Homo sapiens, Myotube, read-out: EC50 DUX4
Text: A quantitative assay readout was developed based on script-based image analysis. […] To analyse the images, an automated script was developed, enabling the detection of nuclei, myotube borders and DUX4 signals, with the script also detecting artefacts to reduce false positive signals. The script enabled multiple validated readouts including the number of DUX4 positive nuclei and nuclei clusters, the fusion index, myotube area, myotube width and myotube skeleton length (see FIG. 2). Additionally, the total nuclei count was included as a measure of cell loss or compound toxicity.
A compound library containing approximately 5000 annotated compounds was screened in the high-content assay. For this purpose, primary myoblasts were seeded in 384 well plates after which the growth medium was replaced with differentiation medium. After 3 days of differentiation, cells were treated with library compounds (in duplicate on different screening plates) for 15 h, after which they were fixed and stained with antibodies against DUX4, antibodies against myosin heavy chain (MHC), and with DAPI (4′,6-diamidino-2-phenylindole). Script-based analysis provided readouts for DUX4 expression (count of DUX4-positive nuclei or DUX4 intensity) and for potential toxicity (fusion index and nuclei count).
Compounds were incubated with primary FSHD cells for 15 hours, as indicated by the arrow in FIG. 4A.
Compounds are administered either 15 h before fixation, resembling the original screening protocol, or 72 h before fixation (grey arrow). In the latter case, compounds are present during the whole differentiation process.

[6] = system: pancreatic tumor cell; settings: in vitro and in vivo; cited from earlier work
[7] = system: DUX4; settings: immortalised differentiated myotube cultures; cited from earlier work
[8] = primary FSHD cells, compound incubation 15 hours

Sequence of CK1 α (P48729 whole entry): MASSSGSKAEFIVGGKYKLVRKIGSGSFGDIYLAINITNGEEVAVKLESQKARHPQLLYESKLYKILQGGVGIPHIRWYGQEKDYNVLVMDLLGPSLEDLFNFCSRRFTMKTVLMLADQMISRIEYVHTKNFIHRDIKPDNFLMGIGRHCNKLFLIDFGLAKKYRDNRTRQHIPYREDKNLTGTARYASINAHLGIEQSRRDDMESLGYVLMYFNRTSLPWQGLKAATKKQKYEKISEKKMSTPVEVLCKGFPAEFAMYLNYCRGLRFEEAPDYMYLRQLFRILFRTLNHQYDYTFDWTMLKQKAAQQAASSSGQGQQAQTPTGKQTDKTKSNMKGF

## CC1(C)CN(c2ccc3nc(-c4ccc(F)cc4)c(-c4ccncc4)n3n2)CCN1 [Compound A]
[1]
  IC50: 30 nM
[2]
  IC50: 12 nM
[3]
  IC50: 19 nM
[4]
  IC50: 13 nM
[5]; [8]
  EC50: 50 nM

## Cn1cc(-c2ccnc3c2C(=O)OC3)c(-c2ccc(F)cc2)n1 [Compound D]
[1]
  IC50: 644 nM
[2]
  IC50: 51.6 nM
[3]
  IC50: 33.1 nM
[4]
  IC50: 569 nM
[5]; [8]
  EC50: 1410 nM

## CN1Cc2nccc(-c3cn(C)nc3-c3ccc(F)cc3)c2C1=O [Compound E]
[1]
  IC50: 592 nM
[4]
  IC50: 1110 nM
[5]; 15 h
  EC50: 1890 nM

## Cn1cc(-c2ccnc3c2C(=O)N(C2CCOCC2)C3)c(-c2ccc(F)cc2)n1 [Compound F]
[1]
  IC50: 561 nM
[2]
  IC50: 72 nM
[3]
  IC50: 18 nM
[4]
  IC50: 677 nM
[5]; [8]
  EC50: 2590 nM

## Fc1ccc(-c2nc3ccc(N4CCNCC4)nn3c2-c2ccncc2)cc1 [Compound H]
[1]
  IC50: 33 nM
[2]
  IC50: 16 nM
[3]
  IC50: 22 nM
[4]
  IC50: 25 nM
[5]; [8]
  EC50: 10 nM

## COc1cc(OC)c(C=C2C(O)=Nc3ccccc32)c(OC)c1 [IC261]
[6]
  pancreatic tumor cell growth: reduces pancreatic tumor cell growth

## Nc1nccc(-c2c(-c3ccc(F)cc3)ncn2C2CCCCC2)n1 [PF-670462, reference compound]
[1]
  IC50: 320 nM
[4]
  IC50: 32 nM
[5]; [8]
  EC50: 470 nM

## Nc1nccc(-c2c(-c3ccc(F)cc3)ncn2C2CCN(Cc3ccon3)CC2)n1 [PF-5006739, reference compound]
[1]
  IC50: 123 nM
[2]
  IC50: 27 nM
[3]
  IC50: 20 nM
[4]
  IC50: 74 nM
[5]; [8]
  EC50: 820 nM

## COc1cc(OC)c2c(=O)[nH]c(-c3cc(C)c(OCCO)c(C)c3)nc2c1 [RVX-208, reference compound]
[7]
  expression of DUX4: can inhibit the expression of DUX4
[5]; irrespective of treatment time (15 h or 72 h)
  effect on DUX4 expression: did not show any effect on DUX4 expression

## Fc1cccc(-n2cnc3c(NCc4nc5ccc(F)c(F)c5[nH]4)nc(N4CCOCC4)nc32)c1 [SR-3029, reference compound]
[1]
  IC50: > 10000 nM
[4]
  IC50: > 10000 nM
[5]; 15 h
  EC50: 50 nM
